The results in this text go back to patent EP1016405A2, “Arylating medicaments” (Radopath Pharmaceuticals International Limited, priority 1993, dated 1994).

“And” between values parts separate entries of the source, which are not always exact repeats. Equal values may be shown once. Read-outs that look alike come from different tables or passages of the source.

The test system of series [1] is MAC15A (murine adenocarcinoma colon). As to the kind of experiment: Anti-tumour activity against MAC15A ascites tumour, survival T/C%. It counts as in vivo, mice. The note with it: for T/C%: mouse, in vivo; for response vs control in vivo at 100 mg/kg: Mus musculus, MAC15A, read-out: T/C%.
A further series has as its system HIV-1IIIB. The experiment in a line: Acute infection assay against HIV-1IIIB. It counts as cell-based, human immunodeficiency virus. To be noted: for IC50: read-out: IC50 (Antiviral).
Another series concerns B16F1-murine melanoma. The note with it: 12 days after sc transplant, corn oil.
A further series can be described thus: in vitro. To be noted: CC50 (Toxicity).
The next series concerns HIV-1RF. As to the kind of experiment: Acute Infection Assay, HIV core antigen ELISA in C8166 cells. Type of series: cell-based, human immunodeficiency virus.
Another series is described as follows: in vivo. To be noted: mouse, ip.
The mark [2] stands for this setting: Human immunodeficiency virus 1, IIIB.
The mark [3] stands for this setting: Human immunodeficiency virus 1, Table 11.3, Against HIV-IIIB / HIV-1IIIB, single assays, unit inferred.
Where [4] appears, read: Human immunodeficiency virus 1, C8166, read-out: IC50 (Antiviral).
Where [5] appears, read: Human immunodeficiency virus 1, C8166, Table 11.4, Against HIV-1RF, single assays, unit inferred, read-out: IC50 (Antiviral).

“2-glutathionyl-3,5-dinitrobenzenesulfonic acid” gave a T/C% in series [1] (ip) of 242%.
Still for that read-out and setting: in the case of 4-glutathionyl-3,5-dinitrobenzene it was 113%; in that of `Nc1ccc([N+](=O)[O-])cc1[N+](=O)[O-]` [2,4-dinitroaniline], 100%; in that of `O=C(O)c1ccc([N+](=O)[O-])cc1[N+](=O)[O-]` [2,4-dinitrobenzoic acid], 100%.
`Nc1c([N+](=O)[O-])cccc1[N+](=O)[O-]` [2,6-dinitroaniline] showed a T/C% in series [1] (ip) of 214%.
Regarding `Nc1ccc([N+](=O)[O-])cc1Cl` [2-chloro-4-nitroaniline], the response vs control in vivo at 100 mg/kg in series [1] (ip) was found to be 171%.
Turning to `O=C(O)c1cc([N+](=O)[O-])cc([N+](=O)[O-])c1` [3,5-dinitrobenzoic acid], the T/C% in series [1] (ip) was 100%.
Take `Cc1ccc(S(=O)(=O)O)cc1[N+](=O)[O-]` [3-nitro-4-methylbenzenesulfonic acid]: the response vs control in vivo at 100 mg/kg in series [1] (ip) came out at 229%.
For the compound `NC(=O)c1cc([N+](=O)[O-])c(N)c([N+](=O)[O-])c1` [4-amino-3,5-dinitrobenzamide], in series [1] (ip, 24 h), the response vs control in vivo at 100 mg/kg was determined as 100%.
In turn, `Nc1c([N+](=O)[O-])cc(Cl)cc1[N+](=O)[O-]` [4-chloro-2,6-dinitroaniline] gave a T/C% in series [1] (ip) of 87%.
Regarding `COc1ccc(Cl)c([N+](=O)[O-])c1` [4-chloro-3-nitroanisole], the response vs control in vivo at 100 mg/kg in series [1] (ip) stood at 100%.
In turn, `Nc1c(Cl)cc([N+](=O)[O-])cc1[N+](=O)[O-]` [6-chloro-2,4-dinitroaniline] showed a T/C% in series [1] (ip) of 87%.
As a reminder, the CC50 is the concentration at which the toxic effect on the cells reaches its halfway point. Lower therefore signals greater toxicity to the cells. `O=C(O)c1cc([N+](=O)[O-])c(Cl)c([N+](=O)[O-])c1` [Compound C4, 4-chloro-3,5-dinitrobenzoic acid]: the “SI (Selectivity Index)” value in the series on HIV-1IIIB is 2.5 and 2.3. The “% Tumour Weight Inhibition” value is listed as 10% in the series with B16F1-murine melanoma (50 mg/kg ip, days 1,5); 41% in the series on B16F1-murine melanoma (75 mg/kg ip, days 1,5); 39% in the series on B16F1-murine melanoma (100 mg/kg ip, days 1,5). The compound further gave a CD50 in the series on uninfected cells of 70µm. Moreover, the midpoint of cytotoxicity in “in vitro”, the CC50, lay at 100 µM. Besides, the TI in the series with HIV-1RF amounted to 2.33.
Turning to `NC(=O)c1cc([N+](=O)[O-])c(Cl)c([N+](=O)[O-])c1` [Compound C5, 4-chloro-3,5-dinitrobenzamide], the “SI (Selectivity Index)” value with HIV-1IIIB is recorded as 10. The “% Tumour Weight Inhibition” value in the series with B16F1-murine melanoma (1.25 mg/kg ip, days 1,3,5) is listed as 27%; with B16F1-murine melanoma (2.5 mg/kg ip, days 1,3,5), 18%; in the series with B16F1-murine melanoma (5 mg/kg ip, days 1,3,5), 18%. The same compound registered a CC50 in “in vitro” of 50 µM. This compound came in with an MTD at 12 days in “in vivo” of 5 mg/kg.
For orientation: IC50 means the concentration needed to halve the response being measured. Take `COC(=O)c1cc([N+](=O)[O-])c(Cl)c([N+](=O)[O-])c1` [Compound C6, 4-chloro-3,5-dinitrobenzoic acid methyl ester]: in the series with HIV-1IIIB (setting [2]), the IC50 was 5 µM. This compound yielded a CC50 in “in vitro” of 60 µM. Besides, the MTD in “in vivo” was 2.5 mg/kg.
As for `O=C(O)c1cc([N+](=O)[O-])cc([N+](=O)[O-])c1Cl` [Compound C7, 2-chloro-3,5-dinitrobenzoic acid], in the series with HIV-1IIIB, the “SI (Selectivity Index)” value was 6 and >10; the half-maximal inhibitory concentration (IC50) was determined as 23 µM. The CC50 in the series on uninfected cells is above 200 µM. In addition, the 50% cytotoxic concentration (CC50) in the series “in vitro” is 150 µM.
As for `COC(=O)c1cc([N+](=O)[O-])cc([N+](=O)[O-])c1Cl` [Compound C8, 2-chloro-3,5-dinitrobenzoic acid methyl ester], the 50% inhibitory concentration (IC50) in the series on HIV-1IIIB (setting [2]) came out at 10 µM. This compound displayed a CC50 in “in vitro” of 60 µM.
Consider `O=C(O)c1ccc(Cl)c([N+](=O)[O-])c1` [Compound C9, 4-chloro-3-nitrobenzoic acid], for which the IC50 with HIV-1IIIB (setting [3]) was above 200 µM. The compound further came in with a CC50 in “in vitro” above 200 µM.
Take `O=C(O)c1ccc([N+](=O)[O-])cc1Cl` [Compound C-10, 2-chloro-4-nitrobenzoic acid]: the IC50 in the series with HIV-1IIIB (setting [3]) was above 200 µM. For the same compound, the CC50 in “in vitro” is above 200 µM.
As for `O=C(O)c1ccc(Cl)c(Cl)c1` [Compound C-11, 3,4-dichlorobenzoic acid], the half-maximal inhibitory concentration (IC50) in the series on HIV-1IIIB (setting [3]) was above 200 µM. The CC50 in “in vitro” was above 200 µM.
The compound `O=C(O)c1cc(Cl)ccc1Cl` [Compound C-12, 2,5-dichlorobenzoic acid] had a CC50 in “in vitro” above 200 µM. In addition, the response vs control in vivo at 100 mg/kg in series [1] (ip) was determined as 171%.
`O=[N+]([O-])c1ccc(Cl)cc1[N+](=O)[O-]` [Compound E1, 1-chloro-3,4-dinitrobenzene] displayed a CC50 in the series “in vitro” of 10 µM. This compound also gave a T/C% in series [1] (ip) of 200%. The “SI (Selectivity Index)” value with HIV-1RF is 2.5. Moreover, the IC50 in the series on HIV-1RF (read-out: IC50 (Antiviral)) turned out to be 4 µM.
Turning to `O=[N+]([O-])c1ccc(Cl)c([N+](=O)[O-])c1` [Compound E2, 1-chloro-2,4-dinitrobenzene], it took 13 µM to reach half-maximal cytotoxicity in the series “in vitro” (CC50). Also, in series [1] (ip), the response vs control in vivo at 100 mg/kg was found to be 188%. The “SI (Selectivity Index)” value in the series on HIV-1RF amounted to 3. Besides, in the series on HIV-1RF (setting [4]), the IC50 is 4 µM.
As to `O=[N+]([O-])c1cc(Cl)c(Cl)cc1[N+](=O)[O-]` [Compound E3, 1,2-dichloro-4,5-dinitrobenzene], in the series “in vitro”, half-maximal cytotoxicity (CC50) was put at 7 µM. Besides, in series [1] (ip), the T/C% was 171%. Besides, the “SI (Selectivity Index)” value in the series on HIV-1RF is given as 1.5. For the same compound, in the series on HIV-1RF (read-out: IC50 (Antiviral)), the concentration for half-maximal inhibition (IC50) was determined as 4 µM.
Take `O=[N+]([O-])c1cccc(Cl)c1Cl` [Compound E4, 2,3-dichloronitrobenzene]: in the series on uninfected cells, the CC50 was above 200 µM. In addition, the “SI (Selectivity Index)” value in the series with HIV-1RF stood at 1.5. For the same compound, in the series on HIV-1RF (setting [4]), the IC50 is 80 µM.
The like results for `O=[N+]([O-])c1ccc(Cl)cc1Cl` [Compound E5, 2,4-dichloronitrobenzene] were, in that order, above 200 µM, 1 and 180 µM.
In the case of `O=[N+]([O-])c1cc(Cl)ccc1Cl` [Compound E6, 2,5-dichloronitrobenzene], in the series “in vitro”, the CC50 was above 200 µM. In the series with HIV-1RF, the “SI (Selectivity Index)” value is on record as 2. Also, the IC50 in the series on HIV-1RF (setting [4]) stood at 110 µM.
`O=[N+]([O-])c1ccc(Cl)c(Cl)c1` [Compound E7, 3,4-dichloronitrobenzene] returned a CC50 with uninfected cells above 200 µM. In the series on HIV-1RF (setting [4]), the IC50 is above 200 µM.
`O=[N+]([O-])c1cc(Cl)cc(Cl)c1` [Compound E8, 3,5-dichloronitrobenzene] registered a CC50 in the series with uninfected cells above 200 µM. Further, in the series on HIV-1RF, the “SI (Selectivity Index)” value was determined as 1.5. For the same compound, in the series with HIV-1RF (setting [4]), the IC50 came to 120 µM.
In the case of `O=[N+]([O-])c1cc(Cl)cc(Cl)c1[N+](=O)[O-]` [Compound E9, 1,5-dichloro-2,3-dinitrobenzene], the response vs control in vivo at 100 mg/kg in series [1] (ip) came out at 386%.
In the series “in vitro”, `O=[N+]([O-])c1ccc(Cl)c(Cl)c1Cl` [Compound E10, 1,2,3-trichloro-4-nitrobenzene] registered a CC50 of 90 µM. Further, the IC50 with HIV-1RF (setting [4]) was above 200 µM.
In the series “in vitro”, `O=[N+]([O-])c1cc(Cl)c(Cl)cc1Cl` [Compound E11, 1,2,4-trichloro-5-nitrobenzene] displayed a CC50 above 200 µM. The IC50 in the series with HIV-1RF (setting [4]) was above 200 µM.
Take `O=[N+]([O-])c1c(Cl)cc(Cl)c(Cl)c1Cl` [Compound E13, 2,3,4,6-tetrachloronitrobenzene]: the CC50 in “in vitro” amounted to 80 µM. For the same compound, the half-maximal inhibitory concentration (IC50) in the series on HIV-1RF (setting [4]) is above 200 µM.
The like results for `O=[N+]([O-])c1c(Cl)c(Cl)c(Cl)c(Cl)c1Cl` [Compound E14, pentachloronitrobenzene] were, in that order, above 200 µM and above 200 µM.
The compound `O=[N+]([O-])c1cc([N+](=O)[O-])c(Cl)c(S(=O)(=O)O)c1` [Compound S2, 2-chloro-3,5-dinitrobenzenesulfonic acid] displayed a CD50 in the series with uninfected cells above 200µm. The T/C% in series [1] (ip) stood at 137%. The TI with HIV-1RF is reported as above 8. The IC50 in the series on HIV-1RF (read-out: IC50) is 25 µM.
In the same order, the values of `Nc1c([N+](=O)[O-])cc(S(=O)(=O)O)cc1[N+](=O)[O-]` [Compound S3, 4-amino-3,5-dinitrobenzenesulfonic acid] are 100µm, 286%, 5 and 20 µM.
Regarding `O=[N+]([O-])c1cc(S(=O)(=O)O)ccc1Cl` [Compound S4, 4-chloro-3-nitrobenzenesulfonic acid], in “in vitro”, the CC50 is above 200 µM. The response vs control in vivo at 100 mg/kg in series [1] (ip) turned out to be 140%. Further, the IC50 with HIV-1RF (setting [5]) is above 200 µM.
As to `O=S(=O)(O)c1ccc(Cl)cc1` [Compound S5, 4-chlorobenzenesulfonic acid], the CC50 in “in vitro” is above 200 µM. The response vs control in vivo at 100 mg/kg in series [1] (median survival, test vs solvent control, 100 mg kg^-1 ip per day, schedule days 1,2,3,4,5) is 443%. Besides, the IC50 in the series on HIV-1RF (setting [5]) is above 200 µM.
Consider `O=S(=O)(O)c1cc(Cl)ccc1Cl` [Compound S7, 2,5-dichlorobenzenesulfonic acid], for which, in the series “in vitro”, the CC50 was above 200 µM. Besides, the response vs control in vivo at 100 mg/kg in series [1] (ip) is 212%. For the same compound, in the series on HIV-1RF (setting [5]), the concentration for half-maximal inhibition (IC50) was above 200 µM.
Compound `O=[N+]([O-])c1ccc(S(=O)(=O)O)c([N+](=O)[O-])c1` [Compound S8, 2,4-dinitrobenzenesulfonic acid] had a CC50 in the series “in vitro” of 100 µM. Further, the T/C% in series [1] (ip) stood at 171%. Also, the IC50 with HIV-1RF (read-out: IC50 (Antiviral)) is 40 µM and 30 µM.
